# Assays:
# [1] = target: T1, Alpha-1A adrenergic receptor (Homo sapiens, UniProt P35348); assay: Displacement of [125I]HEAT from human recombinant adrenergic alpha1A receptor
# T1 sequence (P35348 whole entry): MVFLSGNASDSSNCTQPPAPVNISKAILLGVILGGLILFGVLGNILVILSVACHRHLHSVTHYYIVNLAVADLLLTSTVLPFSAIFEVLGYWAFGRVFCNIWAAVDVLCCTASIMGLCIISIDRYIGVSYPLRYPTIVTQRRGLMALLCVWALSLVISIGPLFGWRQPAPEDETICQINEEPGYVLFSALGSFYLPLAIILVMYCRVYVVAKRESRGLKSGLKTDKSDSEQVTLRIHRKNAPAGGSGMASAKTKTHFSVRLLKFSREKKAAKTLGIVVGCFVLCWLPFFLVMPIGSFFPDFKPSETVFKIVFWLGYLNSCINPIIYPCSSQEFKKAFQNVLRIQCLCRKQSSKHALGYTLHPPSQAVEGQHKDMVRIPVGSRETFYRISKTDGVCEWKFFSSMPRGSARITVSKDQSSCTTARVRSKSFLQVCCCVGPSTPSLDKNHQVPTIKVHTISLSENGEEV
# [2] = target: T2, Alpha-1B adrenergic receptor (Homo sapiens, UniProt P35368); assay: Displacement of [125I]HEAT from human recombinant adrenergic Alpha-1B receptor
# T2 sequence (P35368 whole entry): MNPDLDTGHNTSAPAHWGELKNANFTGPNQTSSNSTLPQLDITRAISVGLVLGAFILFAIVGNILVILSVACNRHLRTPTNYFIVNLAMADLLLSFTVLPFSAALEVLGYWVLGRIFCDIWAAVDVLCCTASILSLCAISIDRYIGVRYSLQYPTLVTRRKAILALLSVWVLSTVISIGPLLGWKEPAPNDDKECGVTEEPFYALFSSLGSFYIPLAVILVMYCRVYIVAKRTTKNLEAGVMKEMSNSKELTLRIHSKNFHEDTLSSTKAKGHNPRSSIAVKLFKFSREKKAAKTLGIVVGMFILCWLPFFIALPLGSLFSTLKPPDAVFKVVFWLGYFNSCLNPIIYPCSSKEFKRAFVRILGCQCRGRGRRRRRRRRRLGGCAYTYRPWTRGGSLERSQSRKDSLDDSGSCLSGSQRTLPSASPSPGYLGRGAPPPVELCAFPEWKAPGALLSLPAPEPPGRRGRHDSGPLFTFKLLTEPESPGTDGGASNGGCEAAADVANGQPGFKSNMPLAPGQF
# [3] = target: D(2) dopamine receptor (Homo sapiens, UniProt P14416); assay: Displacement of [125I]spiperone from human recombinant dopamine D2 receptor
# [4] = species: Homo sapiens; assay: Selectivity for human alpha1A receptor over human Alpha-1D receptor
# Chain of D(2) dopamine receptor (P14416 whole entry): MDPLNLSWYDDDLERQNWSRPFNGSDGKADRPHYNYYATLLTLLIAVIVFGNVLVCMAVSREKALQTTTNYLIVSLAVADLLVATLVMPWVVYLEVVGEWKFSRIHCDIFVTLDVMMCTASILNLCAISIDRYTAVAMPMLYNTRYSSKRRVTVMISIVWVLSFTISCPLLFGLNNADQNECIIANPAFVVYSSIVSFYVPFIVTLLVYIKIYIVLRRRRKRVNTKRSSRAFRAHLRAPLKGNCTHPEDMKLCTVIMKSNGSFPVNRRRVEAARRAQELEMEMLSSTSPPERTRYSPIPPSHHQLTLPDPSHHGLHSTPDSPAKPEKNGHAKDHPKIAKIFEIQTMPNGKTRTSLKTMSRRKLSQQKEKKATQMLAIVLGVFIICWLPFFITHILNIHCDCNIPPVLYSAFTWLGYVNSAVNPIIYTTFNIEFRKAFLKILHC
Ki [1] [nM],Ki [2] [nM],Ki [3] [nM],Ratio Ki [4],Structure (SMILES)
3.1,76,0.69,–,CC(C)Oc1ccccc1N1CCN(C2CCC(NC(=O)Nc3ccc(F)cc3F)CC2)CC1 (trans isomer)
82,706,183,–,CC(C)Oc1ccccc1N1CCN(C2CCC(NC(=O)NCc3cccc(F)c3)CC2)CC1 (stereo in doubt; cis)
5.1,–,84,–,CC(C)Oc1ccccc1N1CCN(C2CCC(NC(=O)Nc3cccc(Cl)c3)CC2)CC1 (stereo in doubt; trans)
14,475,35.5,–,CC(C)Oc1ccccc1N1CCN(C2CCC(NC(=O)Nc3ccc(F)cc3F)CC2)CC1 (cis isomer)
11,69,120,–,CC(C)Oc1ccccc1N1CCN(C2CCC(NC(=O)NCc3cccc(F)c3)CC2)CC1 (stereo in doubt; trans) [listing 1 of 2 here]
51,483,103,–,CC(C)Oc1ccccc1N1CCN(C2CCC(NC(=O)Nc3c(Cl)cc(Cl)cc3Cl)CC2)CC1 (stereo in doubt)
5.3,36,2.4,–,CC(C)Oc1ccccc1N1CCN(C2CCC(NC(=O)Nc3c(F)cccc3F)CC2)CC1 (stereo in doubt; trans)
3.6,60,54,–,CC(C)Oc1ccccc1N1CCN(C2CCC(NC(=O)Nc3ccc(F)c(F)c3)CC2)CC1 (stereo in doubt)
101,–,99,–,COc1ccc(Cl)cc1NC(=O)NC1CCC(N2CCN(c3ccccc3OC(C)C)CC2)CC1 (cis isomer)
34,–,1.2,–,COc1ccc(Cl)cc1NC(=O)NC1CCC(N2CCN(c3ccccc3OC(C)C)CC2)CC1 (trans isomer)
–,–,–,4,CC(C)Oc1ccccc1N1CCN(C2CCC(NC(=O)Nc3cc(F)ccc3F)CC2)CC1 (stereo in doubt) [listing 1 of 2 here]
51,963,127,–,CC(C)Oc1ccccc1N1CCN(C2CCC(NC(=O)Nc3ccc(F)c(F)c3)CC2)CC1 (cis isomer)
1.7,36.4,0.46,–,CC(C)Oc1ccccc1N1CCN(C2CCC(NC(=O)Nc3cc(F)ccc3F)CC2)CC1 (stereo in doubt) [listing 2 of 2 here]
–,–,–,4,CC(C)Oc1ccccc1N1CCN(C2CCC(NC(=O)Nc3c(Cl)cc(Cl)cc3Cl)CC2)CC1 (trans isomer) [listing 1 of 2 here]
–,–,–,4,CC(C)Oc1ccccc1N1CCN(C2CCC(NC(=O)NCc3cccc(F)c3)CC2)CC1 (stereo in doubt; trans) [listing 2 of 2 here]
22,–,108,–,CC(C)Oc1ccccc1N1CCN(C2CCC(NC(=O)Nc3cccc(Cl)c3)CC2)CC1 (stereo in doubt; cis)
6.2,–,4.7,–,CC(C)Oc1ccccc1N1CCN(C2CCC(NC(=O)Nc3c(Cl)cccc3Cl)CC2)CC1 (stereo in doubt; trans)
6.5,112,6.5,–,CC(C)Oc1ccccc1N1CCN(C2CCC(NC(=O)Nc3c(Cl)cc(Cl)cc3Cl)CC2)CC1 (trans isomer) [listing 2 of 2 here]
52,299,22,–,CC(C)Oc1ccccc1N1CCN(C2CCC(NC(=O)Nc3c(F)cccc3F)CC2)CC1 (stereo in doubt; cis)
33,–,55,–,CC(C)Oc1ccccc1N1CCN(C2CCC(NC(=O)Nc3c(Cl)cccc3Cl)CC2)CC1 (stereo in doubt; cis)
26,259,199,–,CC(C)Oc1ccccc1N1CCN(C2CCC(NC(=O)Nc3cc(F)ccc3F)CC2)CC1 (cis isomer)

Structure (SMILES),Ki [1] [nM],Ki [2] [nM],Ki [3] [nM],Ratio Ki [4]
CC(C)Oc1ccccc1N1CCN(C2CCC(NC(=O)Nc3ccccc3Cl)CC2)CC1 (stereo in doubt) [listing 1 of 2 here],11,39,33,–
COc1ccc(NC(=O)NC2CCC(N3CCN(c4ccccc4OC(C)C)CC3)CC2)c(OC)c1 (stereo in doubt; trans),74,–,892,–
COc1ccccc1NC(=O)NC1CCC(N2CCN(c3ccccc3OC(C)C)CC2)CC1 (stereo in doubt; trans),38,107,921,–
COc1ccccc1NC(=O)NC1CCC(N2CCN(c3ccccc3OC(C)C)CC2)CC1 (stereo in doubt; cis),155,223,390,–
COc1ccc(NC(=O)NC2CCC(N3CCN(c4ccccc4OC(C)C)CC3)CC2)c(OC)c1 (stereo in doubt; cis),110,–,288,–
CC(C)Oc1ccccc1N1CCN(C2CCC(NC(=O)Nc3ccccc3Cl)CC2)CC1 (cis isomer),48,373,878,–
CC(C)Oc1ccccc1N1CCN(C2CCC(NC(=O)Nc3ccccc3Cl)CC2)CC1 (stereo in doubt) [listing 2 of 2 here],–,–,–,4

# — ChEMBL document CHEMBL1143857, “(Phenylpiperazinyl)cyclohexylureas: discovery of alpha1a/1d-selective adrenergic receptor antagonists for the treatment of benign prostatic hyperplasia/lower urinary tract symptoms (BPH/LUTS)” (Bioorg Med Chem Lett, 2008)
